Data from US20070071725A1, “Nitric oxide synthase gene transfer” (priority 2002, published 2007).
“Also recorded” adds a separate entry of the source.

Assays:
[1] = tested on: isolated atria; test: [3H]ACh release from isolated atria on field stimulation; design: species or system rat; conditions: 10 μmol/L, 5 Hz field stimulation, WKY
Description: Animals were killed and the right atria removed as described above. The preparation was then transferred to a preheated (37 ??0.2 ?C), continuously oxygenated, water-jacketed organ bath containing 4 ml of Tyrode's solution where the atrium was pinned flat between two parallel silver stimulating electrodes 10 mm apart. […] After a 45 minutes equilibration period (where the Tyrode's solution was replaced every 15 minutes), the atrium was stimulated at 5 Hz (15V, 1 ms pulse duration) for one minute and then again after another minute to stimulate acetylcholine turnover. […]
Following the wash period superfusion was stopped and the bath solution replaced every 3 minutes with a 0.5 ml sample being taken on every change of solution. This sample was added to 4.5 ml of scintillation fluid (Ecoscint A, National Diagnostics) and the amount of radioactivity in each sample (disintegrations per minute) measured using a liquid scintillation counter (Tri-carb 2800TR, Packard). […] At the end of the experiment, the atrium was immersed overnight in Tyrode's solution containing 4 U/ml papain (Sigma) and the radioactivity contained in the extract determined. [3H] outflow was expressed as a percentage of the total radioactivity in the atrium at the end of the experiment and that released after superfusion.

[2] = tested on: isolated right atria; test: Evoked [3H]NE release from isolated right atria of SHR and WKY five days after percutaneous gene transfer; design: species or system rat; conditions: 10 μmol/L
[3] = tested on: right double atrial preparations; test: Heart rate (chronotropic) response of atrial preparations to carbachol; design: species or system rat
Description: Sutures (Ethicon, 5/0 mersilk) were placed at the lateral edges of both atria and the preparation was transferred to a pre-heated (37±0.1° C.) water-jacketed organ bath containing 100 ml of continuously oxygenated Tyrode's solution. The atria were vertically mounted with the suture in the left atrium connected to a stainless steel hook and the suture in the right atrium attached to an isometric force transducer (Harvard Apparatus, Model 60-2997, Mass. USA) connected to an amplifier. Heart rate was triggered from contraction and recorded in real time (Biopac MP100 with Acqknowledge software).
Preparations were equilibrated in Tyrode's solution for 60-90 minutes at 37° C. until a stable baseline heart rate was achieved. The right vagus was placed through a pair of custom-built platinum ring electrodes and stimulated at 3, 5, 7 and 10 Hz (15 V, 1 ms pulse duration; order of stimulations randomised) for 25 seconds, with an interval of at least 1 minute between successive stimulations. In some experiments vagal stimulation was repeated after application of the NO donor sodium nitroprusside (SNP; 20 μmol/L, 10 minutes incubation; Sigma). In addition, muscarinic responsiveness of atrial preparations was assessed using cumulative concentration-response curves to carbachol (0.1-0.5 μmol/L; Sigma; 2 minutes incubation at each concentration).

[4] = tested on: cGMP; test: cGMP efflux concentration in perfused right atrial preparation; design: species or system rat; conditions: 0.3 μmol/L, SHR vs WKY
Description: Isolated, perfused, beating atria were prepared by previously described method33,34. In brief, the right rat atrium was dissected from the heart after the animal was killed. A cannula containing 2 small catheters sealed within it was inserted into the atrium and secured by ligatures. The outer tip of the atrial cannula was open to allow for outflow. The cannulated atrium was transferred to a preheated (36.5 […]), continuously oxygenated, waterjacketed organ chamber, immediately perfused with oxygenated Tyrode's solution by means of a peristaltic pump (0.5 ml/min).
The atria were perfused for 60 minutes to stabilize. […]
The radioactivity of [^3H]inulin in atrial perfusate was measured with a liquid scintillation counter, and the amount of ECF translocated through the atrial wall was caculated, the amount of ECF translocated through the atrial wall was calculated as: ECF translocated (μl/min/g atrial wet wt)=total radioactivity in the perfusate (cpm/min)×1000/radioactivity in the pericardial reservoir (cpm/μl)×atrial wet wt (mg).
For measurement of cGMP concentration in perfusate, 500 μl of the perfusate was treated with trichloroacetic acid to a final concentration of 6% for 15 minutes at room temperature and centrifuged at 4° C. […] The amount of cGMP efflux was expressed as pmol cGMP/min/g atrial tissue. […]

[5] = tested on: isolated right atrium; design: species or system SD rat; conditions: 100 μM, Ad.PRS-nNOS treated atria, n=6

O=c1onc2cnc3ccccc3n12 [ODQ, 1H-(1,2,4)oxadiazolo(4,3-a)quinoxaline-1-one]
effect on [3H]ACh release [1]: significantly enhanced | effect on NE release ([2]; Ad.PRS-eGFP treated SHR): did not effect | effect on NE release ([2]; Ad.PRS-nNOS or Ad.PRS-eGFP treated WKY atria): significantly enhanced | effect on Ad.PRS-nNOS attenuation of NE release ([2]; Ad.PRS-nNOS treated SHR): reversed

C[N+](C)(C)CCOC(N)=O [CCh, carbachol]
heart rate response, SHR compared to WKY ([3]; 0.1 μmol/L): significantly increased heart rate response in SHR compared to WKY | heart rate response, SHR compared to WKY ([3]; 0.2 μmol/L): No significantly changed | heart rate response, SHR compared to WKY ([3]; 0.5 μmol/L): significantly increased heart rate response in SHR compared to WKY | cGMP efflux concentration [4]: significantly increased cGMP efflux concentration in the SHR

NC(=NCCC[C@H](N)C(=O)O)N[N+](=O)[O-] [L-NNA, Nω-Nitro-Larginine]
effect on Ad.PRS-nNOS-induced attenuation of NE release [5]: prevented the Ad.PRS-nNOS-induced attenuation of NE release; also recorded: reverse this response
